Values of other authors, collected in patent publication US9151747B1, “Sucralose antibody and immunoassay” (Mercyhurst University, priority 2013, dated 2015).

What was measured:
[1] = background statement
[2] = background statement; remark: listed apart in the source

## OC[C@H]1O[C@H](O[C@]2(CCl)O[C@H](CCl)[C@@H](O)[C@@H]2O)[C@H](O)[C@@H](O)[C@H]1Cl [Sucralose, sucralose]
[1]
  sweetness relative to table sugar: 600 times
[2]
  breakdown by the human body: minimal breakdown
